This is an account of results in article PMC2888578, “Conformational Determinants of Phosphotyrosine Peptides Complexed with the Src SH2 Domain” (PLoS ONE, 2010).

Where two headings read alike, the source gives them in different places. Where a SMILES comes first, the peptide text is derived from it. Where no end group is shown, it is not given here. [ ]: non-standard residue; d: D form. pY = N[C@@H](Cc1ccc(OP(=O)(O)O)cc1)C(=O)O

One may read the IC50 as the concentration that inhibits the measured activity by half. A high value points to weaker potency.

Experiment [1] has as its target Src SH2. Particulars: cited from earlier work.
Experiment [2] addresses T1, Src SH2 domain (Homo sapiens, UniProt P12931).
T1 construct: 350 nM of GST-Src SH2 domain fusion protein
As to the kind of experiment: fluorescence polarization (FP) competition binding assay against fluorescent probe EPQ(pY)EEIPIYL(K-Flc). The note with it: for IC50: concentration that reduces binding of fluorescein-labeled probe EPQ(pY)EEIPIYL(K-Flc) to the Src SH2 domain by 50%, 350 nM GST-Src SH2, 50 nM probe, 25°C, pH 7.3. The protocol: The relative binding affinity of phosphopeptides to the Src SH2 domain was tested by competition against a fluorescent probe using a fluorescence polarization (FP) binding assay, [17], [18]. FP was measured at 25°C in a disposable glass tube, using a Beacon 2000 luminescence spectrometer equipped with an FP apparatus. The excitation and emission wavelengths were set at 485 and 535 nm, respectively. The fluorescent probe was the fluorescein (Flc)-labeled phosphopeptide EPQ(pY)EEIPIYL(K-Flc). For the competition assay, final concentrations of 350 nM of GST-Src SH2 domain fusion protein, 50 nM fluorescent probe, HEPES buffer (20 mM, pH 7.3, 100 mM NaCl, 2 mM DTT, 0.1% BSA) and various concentrations (0–100 µM) of each competitor peptide were used. A blank control (with the Src SH2 domain but without a peptide) and a background control (without both the Src SH2 domain and the peptide) were used. The inhibition percentage IP of fluorescent probe binding to the Src SH2 domain by the sample was calculated by the following equation: [drawing 1] where FP0 is the fluorescent polarization value of the blank control, FP is the fluorescent polarization value of the sample (peptide), and FPb is the fluorescent polarization value of the background control. The inhibition percentages of the various concentrations of the assayed peptides were plotted, and the IC50 value (the concentration that inhibits the binding of the fluorescent probe to the Src SH2 domain by 50%) was calculated.

T1 sequence (P12931 151-248 limits assumed): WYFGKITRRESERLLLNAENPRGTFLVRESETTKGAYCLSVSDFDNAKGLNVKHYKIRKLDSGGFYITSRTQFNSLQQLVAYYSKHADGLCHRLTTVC

Turning to pTyr-Glu-Glu-Ile-Pro ([pY]EEIP), the Kd in experiment [1] (complex of crystal structure 1SPS, read-out: affinity of the high-affinity complex with Src SH2) is 80 to 200 nM.

Take `N[C@@H](Cc1ccc(OP(=O)(O)O)cc1)C(=O)N[C@@H](CCC(=O)O)C(=O)N[C@@H](CCC(=O)O)C(=O)NCC(=O)O` [pYEEG] (H-[pY]EEG-OH): the 50% inhibitory concentration (IC50) in experiment [2] turned out to be 5700 ± 2100 nM.

Regarding `CC[C@H](C)[C@H](NC(=O)[C@H](CC(N)=O)NC(=O)[C@H](CCC(=O)O)NC(=O)[C@@H](N)Cc1ccc(OP(=O)(O)O)cc1)C(=O)O` [pYENI, pTyr-Glu-Asn-Ile] (H-[pY]ENI-OH), the IC50 in experiment [2] worked out at 1000 ± 100 nM. Against the preceding compound, the IC50 is about 5.7-fold lower.

The compound `CC(C)[C@H](NC(=O)[C@H](CC(N)=O)NC(=O)[C@H](CCC(=O)O)NC(=O)[C@@H](N)Cc1ccc(OP(=O)(O)O)cc1)C(=O)O` [pYENV] (H-[pY]ENV-OH) came in with an IC50 in experiment [2] of 2100 ± 700 nM.

For the compound `CC(C)[C@H](NC(=O)[C@H](CC(N)=O)NC(=O)[C@@H](NC(=O)[C@@H](N)Cc1ccc(OP(=O)(O)O)cc1)C(C)C)C(=O)O` [pYVNV, pTyr-Val-Asn-Val-Ala], in experiment [2] (estimated binding free energy from FP IC50), the “est. ΔG” value is -6.96 kcal/mol.

For “pTyr-Val-Pro-Met-Leu ([pY]VPML) [phosphopeptide of the less specific Src SH2 crystal structure 1SHA]”, the Kd in experiment [1] (complex of crystal structure 1SHA, read-out: Kd) was 5500 nM.
